Changes are numbered by the printed parent chain. Where two headings read alike, the source gives them in different places.
Legend:
E234G HYPE = biological target: T1, E234G HYPE (Homo sapiens, UniProt Q9BVA6, E234G); assay: Fluorescence polarization (FP) microplate autoAMPylation assay with Fl-ATP, E234G HYPE inhibitor HTS, cherrypick validation and concentration-response; assay type: biochemical; conditions: for inhibition at 10 µM / % Inh. Cherry-pick / % Inh. HTS: 10 μM compound; for Mean % Inh.: mean of HTS and cherrypick
T1 construct: Δ102 (aa 103-458) HYPE constructs (WT, E234G, and E234G/H363A); His6-SUMO (cleaved yes); made in house; host or cells: E. coli BL21-DE3-RILP
T1 sequence (Q9BVA6 103-458 E234G): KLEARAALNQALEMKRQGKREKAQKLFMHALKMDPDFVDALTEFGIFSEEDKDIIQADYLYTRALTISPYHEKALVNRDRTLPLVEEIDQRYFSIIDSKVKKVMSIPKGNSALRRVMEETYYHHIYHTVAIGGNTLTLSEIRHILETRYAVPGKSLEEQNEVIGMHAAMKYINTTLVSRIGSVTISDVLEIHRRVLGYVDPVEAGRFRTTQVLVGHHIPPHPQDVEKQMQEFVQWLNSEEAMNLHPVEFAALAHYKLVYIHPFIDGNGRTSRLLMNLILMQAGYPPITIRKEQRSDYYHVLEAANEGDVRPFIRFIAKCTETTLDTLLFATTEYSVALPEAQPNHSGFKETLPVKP
Method: Buffer optimization experiments were performed by incubating 0.4 μM of Δ102 HYPE enzyme with 25 nM Fl-ATP (final concentrations) in HTS buffer (50 mM HEPES (pH 7.5), 1 mM MgCl2, 0.1% Triton X-100, 1% DMSO) in the dark at room temperature for 10 min in 384-well black bottom, black wall microplates (20 μL reaction volume). Where specified, 1 mM MgCl2 was replaced with an equivalent concentration of MnCl2, or 0.1% Triton X-100 was replaced with 0.05% or 0.01% Trion X-100. Microplates were snap centrifuged at 1000 g for 10 sec. Microplates were loaded onto a BioTek BioStack NEO2 plate-reader and assessed for fluorescence polarization with 485/530 nm filters and a 55/50 gain adjustment.
A Multidrop 384 reagent dispenser (ThermoFisher) was used to add 0.4 μM HYPE, then 25 nM Fl-ATP (final concentrations) to 384-well black/black microplates (20 μL reaction volume). Both enzyme and nucleotide were dissolved in HTS Buffer. AMPylation Reactions were incubated for 10 min at room temperature in the dark. Microplates were snap centrifuged at 1000 g for 10 sec, then transferred to BioTek BioStack NEO2 plate-reader. Reactions were assessed for fluorescence polarization with 485/530 nm filters and a 55/50 gain adjustment. Z′, S/B, and CV values were determined by fitting the data to Eq. 1, 2, and 3, respectively,
An Echo Liquid Handler (Labcyte) was used to transfer 200 nL of DMSO-dissolved compounds via acoustic-coupled ejection from 10 mM source plates into 384-well black, flat-bottom, black-walled microplates, for a final compound concentration of 10 μM. Compounds were sourced from the following libraries: DIVERset (Chembridge), CNS-Set (Chembridge). The compounds went into columns 3-22 of each plate, while columns 1, 2, 23, and 24 were reserved for equivalent volume of 100% DMSO controls.
A Multidrop 384 reagent dispenser was used to pipette 0.4 μM of WT HYPE (final concentration) dissolved in HTS Buffer into columns 1-22 of the activator plates, and columns 1 and 2 of the inhibitor plates as positive controls. 0.4 μM of E234G HYPE was similarly added to columns 3-24 of the inhibitor plates, and columns 23 and 24 of the […]. Enzymes were then incubated with either compounds or DMSO for 10 min at room temperature.
A Multidrop 384 reagent dispenser was used to pipette 25 nM of Fl-ATP (final concentration) into all wells of each plate, giving a final reaction volume of 20 μL. Plates were then incubated for 10 min at room temperature in the dark, followed by a snap centrifugation at 1000 g for 10 sec. Microplates were loaded onto BioTek BioStack stacker and read in succession for fluorescence polarization with 485/530 nm filters and a 55/50 gain adjustment. Fluorescence polarization values were converted to fractional activation (FA) or fractional inhibition FI) values according to Eq. (3) or (4), respectively,
[formula] [formula] • where μp and μn are the means of the positive (E234G HYPE) and negative (WT HYPE) controls, respectively; and x is the measured value of fluorescence polarization.
Microplate “cherrypicking” validations were performed as described above.
A Multidrop 384 reagent dispenser was used to pipette 0.4 μM of WT or E234G HYPE (final concentrations) dissolved in HTS Buffer into designated microplate wells. 10 μM of DMSO-dissolved compounds (final concentrations) or equivalent volume of 100% DMSO were manually pipetted into their specified wells. Enzymes were incubated with compounds or DMSO for 10 min at room temperature. Reagent dispenser was then used to pipette 25 nM of Fl-ATP (final concentration) into each well, followed by a 10 min incubation at room temperature in the dark. Plates were snap centrifuged at 1000 g for 10 sec, then transferred to BioTek BioStack NEO2 plate-reader. Reactions were assessed for fluorescence polarization with 485/530 nm filters and a 55/50 gain adjustment. EC50 and IC50 values were determined by fitting polarization values to Eq. (5) and (6), respectively, […]

WT HYPE = biological target: T2, WT HYPE (Homo sapiens, UniProt Q9BVA6); assay: Fluorescence in-gel autoAMPylation assay with WT HYPE and Fl-ATP; assay type: biochemical; conditions: 10 μM compound, versus DMSO control
T2 construct: Δ102 (aa 103-458) HYPE constructs (WT, E234G, and E234G/H363A); His6-SUMO (cleaved yes); made in house; host or cells: E. coli BL21-DE3-RILP
T2 sequence (Q9BVA6 103-458): T1 sequence (Q9BVA6 103-458 E234G) with G132E
Method: 1 μM of WT HYPE (final concentration) was preincubated with 10 μM DMSO-dissolved compound (final concentration) or equivalent volume of 100% DMSO at room temperature for 10 min. Reactions were run for 20 hr at 30° C. in the dark and began with the addition of 1 μM Fl-ATP (final concentration). Alternatively, E234G HYPE AMPylation reactions were run at 10 min due to its hyperactivity. All other parameters were held constant. All reactions were performed HTS Buffer (50 mM HEPES, 1 mM MgCl2, 0.1% Triton X-100, pH 7.50). All reactions were quenched with 4×SDS loading dye, boiled for 5 min at 95° C., and samples were run on 12% SDS-PAGE gels. Gels were imaged on a Typhoon 9500 FLA imager (General Electric) for fluorescence at 473 nm. Imaged gels were then stained with Coomassie Brilliant Blue, destained, and imaged for protein concentration. Where specified, 5 μM of T229A BiP (final concentration) was added to reactions before the addition of compound.

[1] = biological target: T3, IbpA-Fic2 (IbpA-2) AMPylation of Cdc42 (Histophilus somni, UniProt Q06277); assay: Radioactive in-gel AMPylation assay with WT IbpA-Fic2, Cdc42 and α-32P-ATP (cross reactivity); assay type: biochemical; conditions: 10 μM compound, versus DMSO control
T3 construct: a construct solely containing the second of the two domains, IbpA-2; made in house
T3 sequence (Q06277 3640-3777): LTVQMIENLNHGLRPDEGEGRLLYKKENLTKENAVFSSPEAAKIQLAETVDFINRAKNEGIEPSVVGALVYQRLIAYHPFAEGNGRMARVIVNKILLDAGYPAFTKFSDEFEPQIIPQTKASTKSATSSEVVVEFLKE
Method: 1 μM of HYPE (final concentration) and (where specified) 5 μM of T229A BiP (final concentration) were preincubated with 10 μM DMSO-dissolved compound (final concentration) or equivalent volume of 100% DMSO at room temperature for 10 min in HTS Buffer. Reactions were run for 10 min at 30° C. and began with the addition of 0.01 μCi/μL α-32P-ATP (final concentration). All reactions were performed according to our previously described protocol for in vitro radioactive AMPylation assays19. Where specified, 5 μM of T229A BiP (final concentration) was added to reactions before the addition of compound.
All bacterial Fic specificity assays were conducted with 1 μM GST-tagged IbpA-Fic2, 5 μM GST-tagged Q61L Cdc42, and 0.01 μCi/μL α-32P-ATP (all final concentrations). All other reaction parameters were kept as per HYPE radiolabeled in-gel AMPylation assays.

HeLa cells = assay: MTT cell viability assay, HeLa; assay type: cell-based, human; conditions: HeLa, 48 hr
Method: The cell lines were procured from ATCC (American Type Culture Collection) and cultured in DMEM (Dulbecco's Modified Eagle Medium) supplemented with 10% FBS (fetal bovine serum) without antibiotics. Cells were grown and maintained in a humidified incubator at 37° C. with 5% CO2. For the MTT assay, cells were trypsinized and harvested at ˜80-90% confluency and seeded in 96 well plates at a density of 1×10^4 cells per well. The seeded cells were incubated overnight and treated with 1 μM, 3 μM, 5 μM, 7 μM, 10 μM, 20 μM, 30 μM or 50 μM (final concentration) of DMSO-dissolved compound for 48 hr. To rule out vehicle induced toxicity, only 0.5% of final DMSO concentration was added to the cells. Post-incubation, the compound treatment was removed and replaced with 0.5 mg/ml (final concentration) of freshly prepared MTT solution. After incubating for 3.5 hr at 37° C., 5% CO2 humidified incubator, MTT was carefully removed without aspirating the formazan crystals and replaced with equivalent volume of DMSO to dissolve the formazan crystals. The plates were then read using a multi-plate reader at 570 nm. The absorbance was recorded and % viability was calculated according to the following equation:
[formula] • where, Abt is the absorbance of compound treated cells and Abc is the absorbance of control cells.

HYPE = conditions: pilot screen of nearly 10,000 compounds; cited from earlier work
[2] = cherrypick validation, same FP assay, read-out: % Inh. Cherry-pick
[3] = initial HTS, normalized to WT and E234G HYPE DMSO controls, read-out: % Inh. HTS
[4] = cherrypick validation, same FP assay
[5] = initial HTS, normalized to WT and E234G HYPE DMSO controls

| inhibition at 10 µM (E234G HYPE; [2]) [%] | inhibition at 10 µM (E234G HYPE; [3]) [%] | Mean % Inh. (E234G HYPE) [%] | Compound | also measured |
| --- | --- | --- | --- | --- |
| 31 | 27.8 | 29.4 | CCCc1cc(O)n(-c2nc3ccccc3[nH]2)n1 [Compound I2.4] | – |
| 34.2 | 20.9 | 27.6 | O=C1Nc2ccc(Br)cc2C12NN=C(c1ccccc1)S2 (stereo not shown) [Compound I2.7] | – |
| – | – | 22.3 | Oc1ccc(CN2CCCCC2)c2cccnc12 [Compound I2.11] | % Inh. Cherry-pick (E234G HYPE; [4]): 24.6%; % Inh. HTS (E234G HYPE; [5]): 19.9% |
| – | – | 32.9 | CN(Cc1cccc2cnccc12)C(=O)c1cnc(-c2ccccn2)nc1O [Compound I2.3] | % Inh. Cherry-pick (E234G HYPE; [4]): 30.7%; % Inh. HTS (E234G HYPE; [5]): 35.0% |
| – | – | – | Clc1ccc(C(c2ccc(Cl)cc2)n2cc[n+](CC(OCc3ccc(Cl)cc3Cl)c3ccc(Cl)cc3Cl)c2)cc1 (stereo not shown) [Compound A1, calmidazolium] | activation of WT HYPE autoAMPylation in gel (WT HYPE): bioactive above our DMSO control; effect on IbpA-2 AMPylation of Cdc42 [1]: lack of AMPylation enhancement; concentration impacting cell viability (HeLa cells): ≤ 1000 nM; effect on HYPE-mediated AMPylation in vitro (HYPE): enhance |
| 33.6 | 27.1 | 30.4 | Oc1cc(-c2ccc(F)cc2)nn1-c1nc2ccccc2[nH]1 [Compound I2.12] | – |
| 32.9 | 23.5 | 28.2 | Cc1nn(-c2nc3ccccc3[nH]2)c2c1C(c1ccc(F)cc1F)CC(=O)N2 (stereo not shown) [Compound I2.5] | – |
| 27.8 | 27.2 | 27.5 | CCc1ccc(N2CC(c3noc(-c4ccc(C#N)cc4)n3)CC2=O)cc1 (stereo not shown) [Compound I2.9] | – |
| 22.7 | 20.3 | 21.5 | CN(Cc1ccccn1)C(C(=O)O)c1ccc2c(c1)OCO2 (stereo not shown) [Compound I2.2] | – |
| 29.7 | 32.7 | 31.2 | Cc1nn(-c2nc3ccccc3[nH]2)c2c1C(c1cc(Br)ccc1F)CC(=O)N2 (stereo not shown) [Compound I2.6] | – |
| – | – | 31.1 | CCCCn1ccnc1C1CCCN(Cc2ccccn2)C1 (stereo not shown) [Compound I2.1] | % Inh. Cherry-pick (E234G HYPE; [4]): 29.7%; % Inh. HTS (E234G HYPE; [5]): 32.5% |
